Reference: patent US20240423973A1, “COMPOUNDS, PHARMACEUTICAL COMPOSITIONS, AND METHODS FOR THE TREATMENT, PREVENTION, OR MANAGEMENT OF HYPERPROLIFERATIVE DISORDERS” (VINCERX PHARMA GMBH, priority 2021, published 2024)

What was measured:
avb3 = experiment: EC50 [nM]
Text: Table printed on a drawing sheet, FIG. 4
Head of the field: EC50 [nM]
The patent's description of the figure: FIG. 4: avb3 binding of selected examples and EC50 values
First copying reader's note: EC50 values relate to the αvβ3 binding assay plotted next to the table; R^2 is the goodness of fit of the curve.
Where the first naming reader finds the target: description_of_the_figure: FIG. 4: avb3 binding of selected examples and EC50 values

HT29 = experiment: Cytotoxicity in vitro in the presence and absence of elastase (MTT assay); assay type: cell-based, human; conditions: HT29 cells, 72 h
Description: (§1) Cultivation of cells was performed according to standard procedures with the media recommended by the provider. The cells, in a total volume of 100 μL, were seeded in a 96-well plate with a white bottom (#3610). After a 24 h incubation period at 37° C. and 5% CO2, the medium was exchanged by adding 90 μL fresh medium. The treatment started by adding the test compound in 10 μL of culture medium to the cells in triplicates. Concentrations ranging from 10^−5 M to 10^−13 M were chosen. Two identically treated sets of samples were prepared. One set was treated with the test compound alone, whereas to the second set the compound and 10 nM elastase was added followed by a 72 h incubation period at 37° C. and 5% CO2. The proliferation was detected using the MTT assay (ATCC). At the end of the incubation period the MTT reagent was added to all samples for 4h. Lysis of the cells followed by addition of the detergent was done overnight. The formed dye was detected at 570 nm. The proliferation of untreated but otherwise identically handled cells was define as the […].

NCI H292 = experiment: as above; assay type: cell-based, human; conditions: NCI H292 cells, 72 h
Description: as §1

786-O = experiment: as above; assay type: cell-based, human; conditions: 786-O cells, 72 h
Description: as §1

SUM149 = experiment: as above; assay type: cell-based; conditions: SUM149 cells, 72 h
Description: as §1

[1] = Compound stability in buffer; assay type: physicochemical; conditions: for release of free payload in buffer: buffer at pH 4, within 24 hours
Description: (§2) Compound B1, Compound C2, and Compound C3 were evaluated for stability in plasma and/or buffer. Compound B1 was stable in rat plasma at 37° C. (FIG. 1 panel (a)) and in buffer at pH 7.4 (FIG. 1 panel (b)) for the duration of the 4-hour assay.
Method for measurement of stability in buffer: 0.15 mg of the test compound are solved in 0.1 ml dimethylsulfoxide and 0.4 ml acetonitrile. For complete dissolution the HPLC vial with the sample solution is shaken and sonicated. Then 1.0 ml of the respective buffer solution is added, and the sample is vortexed. The sample solution is analysed by HPLC to determine the amount of the test compound and up to two byproducts at a particular time over a period of 24 h at 37° C. to values result from a sample immediately taken after vortexing with buffer at RT. The peak areas (in percentage) are used for quantification.

[2] = Compound stability in rat plasma; assay type: in vitro ADME; conditions: rat plasma at 37° C., 4-hour assay; for ester cleavage in rat plasma: detected by LC-MS
Description: as §2
Method for measurement of stability in rat and human plasma: 1 mg of the test compound is dissolved in 0.5 ml acetonitrile/dimethylsulfoxide 1:1. For complete dissolution the HPLC vial is shaken and sonicated. While vortexing 20 μl of this solution are added to 1 ml 37° C. warm plasma. After 0.17, 0.5, 1, 1.5, 2 and 4 hours the enzymatic reaction is stopped by adding 100 μl of the compound plasma solution to a vial containing 300 μl acetonitrile/buffer pH3 (80:20) at RT. The mixture is centrifuged at 5000 rpm for 10 minutes. The supernatant is analyzed by HPLC to determine the amount of the test compound and up to two byproducts. To values result from a processed sample immediately taken after vortexing with plasma at RT. The peak areas (in percentage) are used for quantification. All data is given as percent area of the initial compound at to.

CCCNC(=O)Nc1cccc(S(=O)(=O)Nc2cccc([C@@H](CC(=O)O)NC(=O)Nc3ccc(NC(=O)NCCC(=O)NCCCC[C@H](NC(=O)CCNC(=O)Nc4ccc(NC(=O)N[C@H](CC(=O)O)c5cccc(NS(=O)(=O)c6cccc(NC(=O)NCCC)c6)c5)cc4)C(=O)NCCOCCOCCOCCC(=O)N[C@@H](CC(=O)O)C(=O)N4CCC[C@H]4C(=O)N[C@H](C(=O)O[C@]4(CC)C(=O)OCc5c4cc4n(c5=O)Cc5c-4nc4ccccc4c5CC)C(C)C)cc3)c2)c1 [Compound A2] gave an EC50 (avb3) of 97 nM, an IC50 (HT29; compound alone (no elastase)) greater than 100 nM and an IC50 (HT29; with 10 nM elastase) of 0.01 to 0.1 nM. It also gave an IC50 (NCI H292; compound alone (no elastase)) of 10 to 100 nM, an IC50 (NCI H292; with 10 nM elastase) of 0.01 to 0.1 nM and an IC50 (786-O; compound alone (no elastase)) of 10 to 100 nM. The IC50 (786-O; with 10 nM elastase) was 0.01 to 0.1 nM, the IC50 (SUM149; compound alone (no elastase)) was 10 to 100 nM and the IC50 (SUM149; with 10 nM elastase) was 0.01 to 0.1 nM.

For CCCNC(=O)Nc1cccc(S(=O)(=O)Nc2cccc([C@@H](CC(=O)O)NC(=O)Nc3ccc(NC(=O)N(C)CCN(C)CCN(C)CC(=O)N[C@@H](CC(N)=O)C(=O)N4CCC[C@H]4C(=O)N[C@H](C(=O)O[C@]4(CC)C(=O)OCc5c4cc4n(c5=O)Cc5c-4nc4ccccc4c5CC)C(C)C)cc3)c2)c1 [Compound B1, (4S)-4,11-diethyl-3,14-dioxo-3,4,12,14-tetrahydro-1H-pyrano[3′,4′:6,7]indolizino[1,2-b]quinolin-4-yl N-{2-[{2-[({4-[({(1R)-2-carboxy-1-[3-({3-[(propylcarbamoyl)amino]benzene-1-sulfonyl}amino)phenyl]ethyl}carbamoyl)amino]phenyl}carbamoyl)(methyl)amino]ethyl} (methyl)amino]ethyl}-N-methylglycyl-L-asparaginyl-L-prolyl-L-valinate], the “stability in buffer at pH 7.4” value ([1]; buffer pH 7.4, 4-hour assay) was “stable”, the IC50 (HT29; compound alone (no elastase)) was greater than 100 nM and the IC50 (HT29; with 10 nM elastase) was 0.1 to 1 nM. It also gave an IC50 (NCI H292; compound alone (no elastase)) of 10 to 100 nM, an IC50 (NCI H292; with 10 nM elastase) of 0.1 to 1 nM and an IC50 (786-O; compound alone (no elastase)) of 10 to 100 nM. The IC50 (786-O; with 10 nM elastase) was 0.1 to 1 nM, the “stability in rat plasma” value [2] was “stable” and the IC50 (SUM149; compound alone (no elastase)) was 10 to 100 nM. For the same compound, the IC50 (SUM149; with 10 nM elastase) was 0.01 to 0.1 nM.

In the case of CCCNC(=O)Nc1cccc(S(=O)(=O)Nc2cccc([C@@H](CC(=O)O)NC(=O)Nc3ccc(NC(=O)NCCOCCOCCOCCC(=O)N[C@@H](CC(=O)OCCCN(C)C)C(=O)N4CCC[C@H]4C(=O)N[C@H](C(=O)O[C@]4(CC)C(=O)OCc5c4cc4n(c5=O)Cc5c-4nc4ccccc4c5CC)C(C)C)cc3)c2)c1 [Compound C2, (3R)-3-[({4-[({(9S)-9-[(2S)-2-{[(2S)-1-{[(4S)-4,11-diethyl-3,14-dioxo-3,4,12,14-tetrahydro-1H-pyrano[3′,4′:6,7]indolizino[1,2-b]quinolin-4-yl]oxy}-3-methyl-1-oxobutan-2-yl]carbamoyl}pyrrolidine-1-carbonyl]-2-methyl-7,11-dioxo-6,14,17,20-tetraoxa-2,10-diazadocosan-22-yl}carbamoyl)amino]phenyl}carbamoyl)amino]-3-[3-({3-[(propylcarbamoyl)amino]benzene-1-sulfonyl}amino)phenyl]propanoic acid], the “release of free payload in buffer” value [1] is reported as “No release of free payload is detected”, the IC50 (HT29; compound alone (no elastase)) is reported as 1.1 to 10 nM and the IC50 (HT29; with 10 nM elastase) is reported as 0.1 to 1 nM. It also gave an IC50 (NCI H292; compound alone (no elastase)) of 10 to 100 nM, an IC50 (NCI H292; with 10 nM elastase) of 0.1 to 1 nM and an IC50 (786-O; compound alone (no elastase)) of 10 to 100 nM. For the same compound, the IC50 (786-O; with 10 nM elastase) was 0.1 to 1 nM, the “ester cleavage in rat plasma” value [2] was “slow ester cleavage and release of the aspartate moiety” and the IC50 (SUM149; compound alone (no elastase)) was 0.1 to 1 nM. For the same compound, the IC50 (SUM149; with 10 nM elastase) was 0.01 to 0.1 nM.

With CCCNC(=O)Nc1cccc(S(=O)(=O)Nc2cccc([C@@H](CC(=O)O)NC(=O)Nc3ccc(NC(=O)NCCOCCOCCOCCC(=O)N[C@@H](CC(=O)OCCCCN(C)C)C(=O)N4CCC[C@H]4C(=O)N[C@H](C(=O)O[C@]4(CC)C(=O)OCc5c4cc4n(c5=O)Cc5c-4nc4ccccc4c5CC)C(C)C)cc3)c2)c1 [Compound C3, (3R)-3-[({4-[({(10S)-10-[(2S)-2-{[(2S)-1-{[(4S)-4,11-Diethyl-3,14-dioxo-3,4,12,14-tetrahydro-1H-pyrano[3′,4′:6,7]indolizino[1,2-b]quinolin-4-yl]oxy}-3-methyl-1-oxobutan-2-yl]carbamoyl}pyrrolidine-1-carbonyl]-2-methyl-8,12-dioxo-7,15,18,21-tetraoxa-2,11-diazatricosan-23-yl}carbamoyl)amino]phenyl}carbamoyl)amino]-3-[3-({3-[(propylcarbamoyl)amino]benzene-1-sulfonyl}amino)phenyl]propanoic acid] the “release of free payload in buffer” value [1] was “No release of free payload is detected”, the IC50 (HT29; compound alone (no elastase)) was 10 to 100 nM and the IC50 (HT29; with 10 nM elastase) was 0.1 to 1 nM. The IC50 (NCI H292; compound alone (no elastase)) was 10 to 100 nM, the IC50 (NCI H292; with 10 nM elastase) was 0.1 to 1 nM and the IC50 (786-O; compound alone (no elastase)) was 10 to 100 nM. For the same compound, the IC50 (786-O; with 10 nM elastase) was 0.1 to 1 nM, the “ester cleavage in rat plasma” value [2] was “slow ester cleavage and release of the aspartate moiety” and the IC50 (SUM149; compound alone (no elastase)) was 1.1 to 10 nM. It also gave an IC50 (SUM149; with 10 nM elastase) of 0.01 to 0.1 nM.

For CCCNC(=O)Nc1cccc(S(=O)(=O)Nc2cccc(C(CC(=O)O)NC(=O)Nc3ccc(NC(=O)NCCOCCOCCOCCC(=O)NCCCCC(NC(=O)CCOCCOCCOCCNC(=O)Nc4ccc(NC(=O)NC(CC(=O)O)c5cccc(NS(=O)(=O)c6cccc(NC(=O)NCCC)c6)c5)cc4)C(=O)NCCOCCOCCOCCC(=O)NC(CC(=O)O)C(=O)N4CCCC4C(=O)NC(C(=O)OC4(CC)C(=O)OCc5c4cc4n(c5=O)Cc5c-4nc4ccccc4c5CC)C(C)C)cc3)c2)c1 (stereo not shown) [Compound A3], the EC50 (avb3) was 55 nM.
